# Reference: patent publication EP2033635B1, “Use of phenylbutyric acid or salts thereof for treating pruritus” (Asan Laboratories Company (Cayman) Limited, priority 2007, dated 2009)
# Tests used:
# Format in all cases: cell-based
# Jurkat T cells [1] = assay: Real-time PCR gene expression profiling (RT2 Profiler PCR Array Human Th1-Th2-Th3) in Jurkat T cells stimulated with PMA/ionomycin
# Experimental: FIGs. […] Jurkat T cells were pre-incubated with phenylbutyrate (1 mM) for 24 hrs, and then stimulated with ionomycin (1 µM) and PMA (10 ng/ml) for 6 hrs. Using real-time PCR, the expression of a panel of genes related to helper T cells with or without T-cell stimulation and phenylbutyrate treatment was analyzed. The array includes cytokine genes representative of Th1, Th2 and Th3 cells, gene encoding transcriptional factors regulating the expression of cytokines as well as other markers of CD4+ T lymphocytes, genes involved in immune cell activation in the Th1 and Th2 type immune responses, and genes involved in the antimicrobial humoral response. Results are the mean ± SE of three determinations, expressed as the fold induction (observed experimental relative unit/basal control relative unit in the absence of any stimuli or treatment);
# Jurkat T-cells were nonstimulated or stimulated with ionomycin (1 µM) and PMA (10 ng/ml) for 6 hrs in the absence or presence of pre-incubation of 4-phenylbutyrate sodium (1 mM) for 24 hrs, RNA was extracted and then RT-PCR was performed for profiling the expression of 84 genes related to Th1-Th2-Th3 responses shown in the gene table (FIG. 2).
# human IL-2 promoter = assay: Chromatin immunoprecipitation (ChIP) assay of transcription-factor binding and acetyl H3 at the IL-2 promoter in Jurkat T cells; conditions: 4-phenylbutyrate sodium 1 mM 24 hrs, then ionomycin 1 µM and PMA 10 ng/ml 6 hrs
# Experimental: The induction of multiple cytokine expression depends on the coordinated activation of transcription factors, mostly including NFκB, NF-AT, and AP-1 (Sancho R, et al. J Immunol 172:2341-51, 2004; Li-Weber M, et al. Eur J Immunol 34 :1111-18, 2004). Because induction of cytokines is regulated mainly at the transcriptional level, chromatin immunoprecipitation (ChIP) analysis in Jurkat T cells was performed to determine the binding of NFκB, NF-AT, and AP-1 to IL-2 promoter. Jurkat T cells were nonstimulated or stimulated with ionomycin (1 µM) and PMA (10 ng/ml) for 6 hrs in the absence or presence of pre-incubation of 4-phenylbutyrate sodium (1 mM) for 24 hrs, then formaldehyde crosslinking between protein and DNA and ChIP using anti- NFκB, NF-AT, AP-1, Sp1 or acetyl H3 antibodies (Santa Cruz) were performed. PCR primers were designed to amplify the human IL-2 promoter: F 5'-[…] (-317 to -292 in the IL-2 promoter), R 5'-[…] (+33 to 58). PCR amplifications used a three-step protocol with 90°C (30 s) denaturing temperature, 59°C (45 s) primer annealing temperature, and 72°C (30 s) enzyme reaction temperature for 35 cycles.
# Jurkat T cells [2] = assay: Flow cytometry of cell proliferation, cytotoxicity, apoptosis and cell cycle in Jurkat T cells
# Experimental: Jurkat T cells were treated in the presence of increasing concentrations of 4-phenylbutyrate, ionomycin, and/or phorbol 12-myristate 13-acetate (PMA) for 24-72 hr at 37°C.
# [3] = PMA/ionomycin-induced Jurkat T-cell activation, result in words
# [4] = phenylbutyrate 1 mM 24 hrs, then ionomycin 1 µM + PMA 10 ng/ml 6 hrs, mitogen stimulation alone 2.68
# [5] = 1 mM for 48 hrs, control versus treated cells, flow cytometry
smiles,measurement,setting,value
"O=C([O-])CCCc1ccccc1.[Na+] [Phenylbutyrate, 4-phenylbutyrate sodium]","expression of SOCS1, a suppressor of cytokine signaling",Jurkat T cells [1]; [3],upregulates more expression
same,"induction of Th1 and Th2 cytokines and related genes, T-cell activation markers, immune response genes",Jurkat T cells [1]; [3],completely suppresses or significantly decreases
same,fold induction of CCL7,Jurkat T cells [1]; [4],1.04 fold
same,fold induction of CCL11,Jurkat T cells [1]; [4],0.98 fold
same,fold induction of CCR5,Jurkat T cells [1]; [4],0.98 fold
same,fold induction of IL6,Jurkat T cells [1]; [4],0.98 fold
same,fold induction of IL6R,Jurkat T cells [1]; [4],0.98 fold
same,fold induction of IL9,Jurkat T cells [1]; [4],0.98 fold
same,fold induction of IL12B,Jurkat T cells [1]; [4],0.98 fold
same,fold induction of IL12RB2,Jurkat T cells [1]; [4],0.98 fold
same,fold induction of IL13,Jurkat T cells [1]; [4],0.98 fold
same,fold induction of IL13RA1,Jurkat T cells [1]; [4],0.98 fold
same,fold induction of IL18,Jurkat T cells [1]; [4],0.98 fold
same,fold induction of MAF,Jurkat T cells [1]; [4],0.98 fold
same,fold induction of SFTPD,Jurkat T cells [1]; [4],0.98 fold
same,fold induction of TLR4,Jurkat T cells [1]; [4],0.98 fold
same,fold induction of LAT,"Jurkat T cells [1]; phenylbutyrate 1 mM 24 hrs, then ionomycin 1 µM + PMA 10 ng/ml 6 hrs, mitogen stimulation alone 3.12",1.57 fold
same,fold induction of CCR2,"Jurkat T cells [1]; phenylbutyrate 1 mM 24 hrs, then ionomycin 1 µM + PMA 10 ng/ml 6 hrs, mitogen stimulation alone 4.20",0.84 fold
same,fold induction of JAK2,"Jurkat T cells [1]; phenylbutyrate 1 mM 24 hrs, then ionomycin 1 µM + PMA 10 ng/ml 6 hrs, mitogen stimulation alone 4.72",2.27 fold
same,fold induction of SOCS1,"Jurkat T cells [1]; phenylbutyrate 1 mM 24 hrs, then ionomycin 1 µM + PMA 10 ng/ml 6 hrs, mitogen stimulation alone 4.82",8.59 fold
same,fold induction of IRF1,"Jurkat T cells [1]; phenylbutyrate 1 mM 24 hrs, then ionomycin 1 µM + PMA 10 ng/ml 6 hrs, mitogen stimulation alone 5.86",1.7 fold
same,fold induction of CCR4,"Jurkat T cells [1]; phenylbutyrate 1 mM 24 hrs, then ionomycin 1 µM + PMA 10 ng/ml 6 hrs, mitogen stimulation alone 7.41",1.93 fold
same,fold induction of STAT4,"Jurkat T cells [1]; phenylbutyrate 1 mM 24 hrs, then ionomycin 1 µM + PMA 10 ng/ml 6 hrs, mitogen stimulation alone 7.89",3.32 fold
same,fold induction of IL1R1,"Jurkat T cells [1]; phenylbutyrate 1 mM 24 hrs, then ionomycin 1 µM + PMA 10 ng/ml 6 hrs, mitogen stimulation alone 11.31",3.92 fold
same,fold induction of IL18R1,"Jurkat T cells [1]; phenylbutyrate 1 mM 24 hrs, then ionomycin 1 µM + PMA 10 ng/ml 6 hrs, mitogen stimulation alone 19.97",0.98 fold
same,fold induction of IRF4,"Jurkat T cells [1]; phenylbutyrate 1 mM 24 hrs, then ionomycin 1 µM + PMA 10 ng/ml 6 hrs, mitogen stimulation alone 26.17",16.50 fold
same,fold induction of TLR6,"Jurkat T cells [1]; phenylbutyrate 1 mM 24 hrs, then ionomycin 1 µM + PMA 10 ng/ml 6 hrs, mitogen stimulation alone 29.04",10.43 fold
same,fold induction of IL4R,"Jurkat T cells [1]; phenylbutyrate 1 mM 24 hrs, then ionomycin 1 µM + PMA 10 ng/ml 6 hrs, mitogen stimulation alone 42.81",9.53 fold
same,fold induction of BCL3,"Jurkat T cells [1]; phenylbutyrate 1 mM 24 hrs, then ionomycin 1 µM + PMA 10 ng/ml 6 hrs, mitogen stimulation alone 58.08",19.73 fold
same,fold induction of CD69,"Jurkat T cells [1]; phenylbutyrate 1 mM 24 hrs, then ionomycin 1 µM + PMA 10 ng/ml 6 hrs, mitogen stimulation alone 87.43",48.57 fold
same,fold induction of TNFRSF9,"Jurkat T cells [1]; phenylbutyrate 1 mM 24 hrs, then ionomycin 1 µM + PMA 10 ng/ml 6 hrs, mitogen stimulation alone 89.26",13.01 fold
same,fold induction of IFN-gamma,"Jurkat T cells [1]; phenylbutyrate 1 mM 24 hrs, then ionomycin 1 µM + PMA 10 ng/ml 6 hrs, mitogen stimulation alone 126.24",99.18 fold
same,fold induction of IL2RA,"Jurkat T cells [1]; phenylbutyrate 1 mM 24 hrs, then ionomycin 1 µM + PMA 10 ng/ml 6 hrs, mitogen stimulation alone 151.17",64.98 fold
same,fold induction of CSF2,"Jurkat T cells [1]; phenylbutyrate 1 mM 24 hrs, then ionomycin 1 µM + PMA 10 ng/ml 6 hrs, mitogen stimulation alone 229.13",88.77 fold
same,fold induction of IL2,"Jurkat T cells [1]; phenylbutyrate 1 mM 24 hrs, then ionomycin 1 µM + PMA 10 ng/ml 6 hrs, mitogen stimulation alone 831.75",304.86 fold
same,DNA binding of AP-1 to IL-2 promoter,human IL-2 promoter,decreases
same,DNA binding of NF-AT to IL-2 promoter,human IL-2 promoter,decreases
same,DNA binding of NFκB to IL-2 promoter,human IL-2 promoter,decreases
same,"chromatin structure, acetyl H3 status",human IL-2 promoter,altering acetyl H3 status
same,apoptosis,Jurkat T cells [2]; [5],no significant differences
same,cell proliferation,Jurkat T cells [2]; [5],no significant differences
same,cytotoxicity,Jurkat T cells [2]; [5],no significant differences
same,entry of the cells into the S phase of the cell cycle,"Jurkat T cells [2]; pre-treatment 1 mM for 24 hrs, 48 hrs after stimulation with ionomycin 1 µM plus PMA 10 ng/ml",almost completely prevented
